{
  "source": "paper PMC11475570",
  "about": "“Impact of Optimized Ku–DNA Binding Inhibitors on the Cellular and In Vivo DNA Damage Response” (Cancers, 2024)",
  "key": {"H460 NSCLC cells": {"test_system": "H460 NSCLC cells", "experiment": "Cellular uptake by HPLC", "format": "in vitro ADME, Human", "conditions": "H460, 10 µM", "protocol": "Cellular uptake was evaluated in two NSCLC cell lines, H460 and A549. Cells were seeded into 6-well plates at a density of 1 × 10^6 cells per well and cultured as monolayers at 37 °C and 5% CO2 for 18–24 h. Ku-DBis were added to the media at a concentration of 10 µM and incubation continued for the times indicated. Media were removed, cells were washed 3 times with PBS, 1 mL of methanol was added to each well, and cells were agitated overnight at 4 °C. The methanol was collected, and wells were washed with an additional 1 mL of methanol that was then pooled with the original. The methanol extracts were then dried under vacuum, resuspended in methanol, and analyzed by HPLC using a 250 × 4.6 and 5 μm C-18 reverse phase column with 1% TFA mobile phase in acetonitrile (ACN) gradient elution. Absorption was monitored at 425 nm, HPLC peaks were quantified using a standard curve, and picomoles of compound per million cells was calculated."}, "DNA-PK": {"biological_target": "T1, DNA-PK (Homo sapiens, UniProt P12956+P13010)", "T1 construct": "made in house; Ku 70/80 from baculovirus-infected Sf9 cells", "T1 sequence (P12956 whole entry)": "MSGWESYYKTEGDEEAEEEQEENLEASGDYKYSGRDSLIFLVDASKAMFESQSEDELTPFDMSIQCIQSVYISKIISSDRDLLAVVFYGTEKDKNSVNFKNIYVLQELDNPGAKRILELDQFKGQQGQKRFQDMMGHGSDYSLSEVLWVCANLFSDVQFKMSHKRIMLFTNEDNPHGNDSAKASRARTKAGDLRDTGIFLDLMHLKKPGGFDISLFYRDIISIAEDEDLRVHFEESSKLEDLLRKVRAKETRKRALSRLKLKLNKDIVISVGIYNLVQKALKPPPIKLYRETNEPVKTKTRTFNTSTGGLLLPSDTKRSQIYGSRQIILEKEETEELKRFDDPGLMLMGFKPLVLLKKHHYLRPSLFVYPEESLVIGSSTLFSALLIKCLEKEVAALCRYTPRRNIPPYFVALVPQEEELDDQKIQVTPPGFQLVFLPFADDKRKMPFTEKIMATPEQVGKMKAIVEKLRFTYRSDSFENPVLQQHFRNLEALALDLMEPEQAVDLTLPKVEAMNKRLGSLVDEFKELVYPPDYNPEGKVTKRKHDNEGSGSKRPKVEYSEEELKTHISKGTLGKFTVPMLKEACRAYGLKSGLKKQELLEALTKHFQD", "T1 sequence (P13010 whole entry)": "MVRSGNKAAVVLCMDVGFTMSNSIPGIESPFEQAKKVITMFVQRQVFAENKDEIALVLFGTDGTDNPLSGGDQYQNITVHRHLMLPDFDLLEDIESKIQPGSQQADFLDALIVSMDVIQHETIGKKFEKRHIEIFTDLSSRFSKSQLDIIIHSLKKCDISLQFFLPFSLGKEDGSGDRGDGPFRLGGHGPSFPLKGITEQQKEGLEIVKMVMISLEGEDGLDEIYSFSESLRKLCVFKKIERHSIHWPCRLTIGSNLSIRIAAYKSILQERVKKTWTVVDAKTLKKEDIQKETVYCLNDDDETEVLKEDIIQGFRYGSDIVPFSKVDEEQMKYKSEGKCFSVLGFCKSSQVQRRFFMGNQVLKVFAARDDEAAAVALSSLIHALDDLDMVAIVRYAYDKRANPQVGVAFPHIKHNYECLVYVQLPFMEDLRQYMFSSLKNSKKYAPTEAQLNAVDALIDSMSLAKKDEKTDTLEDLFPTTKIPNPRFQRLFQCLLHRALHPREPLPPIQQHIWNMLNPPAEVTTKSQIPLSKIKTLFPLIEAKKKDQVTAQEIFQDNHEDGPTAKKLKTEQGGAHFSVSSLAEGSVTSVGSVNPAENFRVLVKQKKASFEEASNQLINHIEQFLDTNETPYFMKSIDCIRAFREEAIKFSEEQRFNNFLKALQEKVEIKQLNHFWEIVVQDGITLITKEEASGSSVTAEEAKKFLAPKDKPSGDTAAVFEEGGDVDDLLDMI", "experiment": "DNA-PK kinase assay (phosphate transfer to p53 peptide)", "format": "biochemical", "protocol": "The inhibitory activity of Ku-DBis on Ku-DNA binding was evaluated in vitro using Electrophoretic mobility shift assays (EMSA) with a [^32P]-labeled 30-bp duplex DNA and purified Ku 70/80. Kinase assays were performed to measure the DNA-dependent transfer of [^32P] from γ-[^32P] ATP to a synthetic p53-based peptide substrate, both as previously described. Both EMSA and DNA-PK inhibitor titration assays were performed in triplicate. Data were fit to standard binding curves using GraphPad Prism to determine IC50 values."}},
  "data": [
    {"compound": "COc1ccc(-c2ccc(/C=C3\\C(=O)N(c4cccc(C(=O)O)c4)c4ccccc43)o2)cc1C(=O)Nc1cccc(OC(F)(F)F)c1", "note": "[GL-3392]", "values": [
      {"measurement": "Uptake time course, initial rate and steady-state uptake", "setting": "H460 NSCLC cells", "value": "higher cellular levels than 3395"},
      {"measurement": "Cellular uptake, fold more efficient than methoxy-derivatives 3395 and 3649", "setting": "H460 NSCLC cells; media with 10% FBS", "value": "~ 3 fold"},
      {"measurement": "DNA-PK inhibitory activity, fold more active than fluoro-modified counterparts (3618 and 3649)", "setting": "DNA-PK", "value": "~ 2.5 fold"},
      {"measurement": "IC50", "setting": "DNA-PK; DNA-dependent phosphate transfer to synthetic p53 peptide, purified DNA-PK, mean and SD of triplicate", "value": "770 ± 190", "unit": "nM"}
    ]}
  ]
}
